Laboratory results from patent US11608335B2, “Somatostatin modulators and uses thereof” (CRINETICS PHARMACEUTICALS, INC., priority 2018, dated 2023).
Like-named read-outs stand apart in the source and are kept apart here.

Experiments:
[1] = target: T1, human somatostatin receptor subtype 2 (Homo sapiens, UniProt P30874); assay: cAMP assay for SST2R (inhibition of cAMP via human SST2 receptor); format: cell-based; conditions: Table B, read-out: SST2 potency
T1 construct: expressed in transfected cells
Text: cAMP Assay Protocol for SST2R:

[2] = target: human somatostatin receptor subtype 5 (Homo sapiens, UniProt P35346); assay: cAMP assay for SST5R (inhibition of cAMP via human SST5 receptor); conditions: for Fold selectivity for SST5 vs SST2: SST5 over SST2, class symbols
[3] = read-out: SST5 potency, inhibition of cAMP via human SST5 receptor, Table B

T1 sequence (P30874 whole entry): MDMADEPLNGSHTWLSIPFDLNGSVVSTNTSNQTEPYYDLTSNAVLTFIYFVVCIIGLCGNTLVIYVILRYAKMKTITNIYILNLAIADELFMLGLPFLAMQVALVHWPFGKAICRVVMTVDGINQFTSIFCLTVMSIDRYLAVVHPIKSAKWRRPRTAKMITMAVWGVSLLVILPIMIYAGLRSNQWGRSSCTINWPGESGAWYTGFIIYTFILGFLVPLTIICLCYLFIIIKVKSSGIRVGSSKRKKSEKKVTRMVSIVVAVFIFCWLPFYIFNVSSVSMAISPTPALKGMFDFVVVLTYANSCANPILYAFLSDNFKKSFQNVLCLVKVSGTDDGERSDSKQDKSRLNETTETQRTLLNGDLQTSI
human somatostatin receptor subtype 5, sequence (P35346 whole entry): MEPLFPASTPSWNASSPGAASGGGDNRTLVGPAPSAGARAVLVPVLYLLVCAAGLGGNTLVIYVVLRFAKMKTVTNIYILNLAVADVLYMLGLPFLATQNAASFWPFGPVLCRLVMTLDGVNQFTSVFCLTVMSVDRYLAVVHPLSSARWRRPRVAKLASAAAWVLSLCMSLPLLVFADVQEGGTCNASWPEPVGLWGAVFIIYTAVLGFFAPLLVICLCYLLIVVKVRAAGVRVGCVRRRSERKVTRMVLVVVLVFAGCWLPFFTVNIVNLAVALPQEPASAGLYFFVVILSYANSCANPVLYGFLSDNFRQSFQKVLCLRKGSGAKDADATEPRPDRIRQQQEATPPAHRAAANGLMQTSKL

Compound	EC50 [1] [nM]	EC50 [2] [nM]	Fold selectivity for SST5 vs SST2 [2]	EC50 [2, 3] [nM]
N#Cc1cc(-c2cncc(-c3nc4cccc(F)c4[nH]3)c2N2CC[C@H](N)C2)ccc1Cl [Compound 2-39, 5-{4-[(3S)-3-aminopyrrolidin-1-yl]-5-(4-fluoro-1H-1,3-benzodiazol-2-yl)pyridin-3-yl}-2-chlorobenzonitrile]	100 to 1000	< 10	++ (++=100 to 499)	< 10
C[C@]1(N)CCN(c2c(-c3ccc(F)c(C#N)c3)cncc2-c2nc3ncccc3[nH]2)C1 [Compound 2-167, 5-{4-[(3S)-3-amino-3-methylpyrrolidin-1-yl]-5-{1H-imidazo[4,5-b]pyridin-2-yl}pyridin-3-yl}-2-fluorobenzonitrile]	> 1000	< 10	+++ (+++=≥500)	< 10
N#Cc1cc(F)cc(-c2cncc(-c3nc4cc(F)cc(F)c4[nH]3)c2N2CC[C@H](N)C2)c1 [Compound 2-195, 3-{4-[(3S)-3-aminopyrrolidin-1-yl]-5-(4,6-difluoro-1H-1,3-benzodiazol-2-yl)pyridin-3-yl}-5-fluorobenzonitrile]	> 1000		+++ (+++=≥500)	< 10
CC(N)C1(C)CN(c2c(-c3cccc(C#N)c3)cncc2-c2nc3cc(F)cc(F)c3[nH]2)C1 (centres unmarked) [Compound 1-70, 3-{4-[3-(1-aminoethyl)-3-methylazetidin-1-yl]-5-(4,6-difluoro-1H-1,3-benzodiazol-2-yl)pyridin-3-yl}benzonitrile]	> 1000	< 10	+++ (+++=≥500)	< 10
CC1(N)CCN(c2c(-c3cccc(S(C)(=O)=O)c3)cncc2-c2nc3cccc(F)c3[nH]2)C1 (centres unmarked) [Compound 2-21, 1-[3-(4-fluoro-1H-1,3-benzodiazol-2-yl)-5-(3-methanesulfonylphenyl)pyridin-4-yl]-3-methylpyrrolidin-3-amine]	> 1000	< 10	+++ (+++=≥500)	< 10
CCn1c(-c2cncc(-c3cccc(C#N)c3)c2N2CC[C@H](N)C2)nc2c(F)cccc21 [Compound 2-143, 3-{4-[(3S)-3-aminopyrrolidin-1-yl]-5-(1-ethyl-4-fluoro-1H-1,3-benzodiazol-2-yl)pyridin-3-yl}benzonitrile]	100 to 1000	< 10	+++ (+++=≥500)	< 10
CC(N)C1(C)CN(c2c(-c3cccc(C(F)(F)F)c3)cncc2-c2nc3cc(F)cc(F)c3[nH]2)C1 (centres unmarked) [Compound 1-69, 1-{1-[3-(4,6-difluoro-1H-1,3-benzodiazol-2-yl)-5-[3-(trifluoromethyl)phenyl]pyridin-4-yl]-3-methylazetidin-3-yl}ethan-1-amine]	> 1000	< 10	+++ (+++=≥500)	< 10
Cc1cc(F)cc(-c2cncc(-c3nc4c(F)cc(F)cc4[nH]3)c2N2CC(C(C)N)C2)c1 (centres unmarked) [Compound 1-42, 1-{1-[3-(4,6-difluoro-1H-1,3-benzodiazol-2-yl)-5-(3-fluoro-5-methylphenyl)pyridin-4-yl]azetidin-3-yl}ethan-1-amine]	100 to 1000			
Cc1cc(F)cc(-c2cncc(-c3nc4c(F)c(F)ccc4[nH]3)c2N2CC(CN)C2)c1 [Compound 1-6, 1-{1-[3-(4,5-difluoro-1H-1,3-benzodiazol-2-yl)-5-(3-fluoro-5-methylphenyl)pyridin-4-yl]azetidin-3-yl}methanamine]	> 1000			
Cc1ccc(F)c2nc(-c3cncc(-c4ccc(F)c(C(N)=O)c4)c3N3CCC(C)(N)C3)[nH]c12 (centres unmarked) [Compound 2-125, 5-[4-(3-amino-3-methylpyrrolidin-1-yl)-5-(7-fluoro-4-methyl-1H-1,3-benzodiazol-2-yl)pyridin-3-yl]-2-fluorobenzamide]	100 to 1000	< 10	+++ (+++=≥500)	< 10
CC1(N)CCN(c2c(-c3ccnc(C#N)c3)cncc2-c2nc3cccc(C(F)(F)F)c3[nH]2)C1 (centres unmarked) [Compound 2-148, 4-(3-amino-3-methylpyrrolidin-1-yl)-5-[4-(trifluoromethyl)-1H-1,3-benzodiazol-2-yl]-[3,4′-bipyridine]-2′-carbonitrile]	100 to 1000	< 10	+++ (+++=≥500)	< 10
Cc1cc(F)cc2[nH]c(-c3cncc(-c4ccnc(C#N)c4)c3N3CC[C@](C)(N)C3)nc12 [Compound 2-166, 4-[(3S)-3-amino-3-methylpyrrolidin-1-yl]-5-(6-fluoro-4-methyl-1H-1,3-benzodiazol-2-yl)-[3,4′-bipyridine]-2′-carbonitrile]	100 to 1000	< 10	+++ (+++=≥500)	< 10
Cc1cccc2nc(-c3cncc(-c4cc(F)cc(C#N)c4)c3N3CC[C@@](N)(CO)C3)[nH]c12 [Compound 2-135, 3-{4-[(3S)-3-amino-3-(hydroxymethyl)pyrrolidin-1-yl]-5-(4-methyl-1H-1,3-benzodiazol-2-yl)pyridin-3-yl}-5-fluorobenzonitrile]	10 to 100	< 10	++ (++=100 to 499)	< 10
Cc1cc(F)cc(-c2cncc(-c3nc4cc(F)ccc4[nH]3)c2N2CC(CN)C2)c1 [Compound 1-1, 1-{1-[3-(5-fluoro-1H-1,3-benzodiazol-2-yl)-5-(3-fluoro-5-methylphenyl)pyridin-4-yl]azetidin-3-yl}methanamine]	> 1000			
Cc1cccc2nc(-c3cncc(-c4ccc(F)c(C(N)=O)c4)c3N3CCC(C)(N)C3)[nH]c12 (centres unmarked) [Compound 2-124, 5-[4-(3-amino-3-methylpyrrolidin-1-yl)-5-(4-methyl-1H-1,3-benzodiazol-2-yl)pyridin-3-yl]-2-fluorobenzamide]	100 to 1000	< 10	+++ (+++=≥500)	< 10
CC1(N)CCN(c2c(-c3ccc4c(c3)OCC4)cncc2-c2nc3cccc(F)c3[nH]2)C1 (centres unmarked) [Compound 2-22, 1-[3-(2,3-dihydro-1-benzofuran-6-yl)-5-(4-fluoro-1H-1,3-benzodiazol-2-yl)pyridin-4-yl]-3-methylpyrrolidin-3-amine]	100 to 1000	< 10	++ (++=100 to 499)	< 10
Cc1cccc2nc(-c3cncc(-c4cccc(C#N)c4)c3N3CC[C@H](N)C3)[nH]c12 [Compound 2-80, 3-{4-[(3S)-3-aminopyrrolidin-1-yl]-5-(4-methyl-1H-1,3-benzodiazol-2-yl)pyridin-3-yl}benzonitrile]	100 to 1000	< 10	+++ (+++=≥500)	< 10
C[C@]1(N)CCN(c2c(-c3ccnc(C#N)c3)cncc2-c2nc3cccc(Cl)c3[nH]2)C1 [Compound 2-163, 4-[(3S)-3-amino-3-methylpyrrolidin-1-yl]-5-(4-chloro-1H-1,3-benzodiazol-2-yl)-[3,4′-bipyridine]-2′-carbonitrile]	100 to 1000	< 10	+++ (+++=≥500)	< 10
Cc1cccc2nc(-c3cncc(-c4cc(F)cc(C(N)=O)c4)c3N3CC[C@H](N)C3)[nH]c12 [Compound 2-65, 3-{4-[(3S)-3-aminopyrrolidin-1-yl]-5-(4-methyl-1H-1,3-benzodiazol-2-yl)pyridin-3-yl}-5-fluorobenzamide]	100 to 1000	< 10	++ (++=100 to 499)	< 10
N[C@H]1CCN(c2c(-c3cc(F)cc(Cl)c3)cncc2-c2nc3c(F)cccc3[nH]2)C1 [Compound 2-3, (3 S)-1-[3-(3-chloro-5-fluorophenyl)-5-(4-fluoro-1H-1,3-benzodiazol-2-yl)pyridin-4-yl]pyrrolidin-3-amine]	100 to 1000			
Cc1cc(F)cc(-c2cncc(-c3nc4cc(F)cc(F)c4[nH]3)c2N2CCC(N)C2)c1 (centres unmarked) [Compound 2-1, 1-[3-(4,6-difluoro-1H-1,3-benzodiazol-2-yl)-5-(3-fluoro-5-methylphenyl)pyridin-4-yl]pyrrolidin-3-amine]	100 to 1000			
N#Cc1cc(F)cc(-c2cncc(-c3nc4c(F)cccc4[nH]3)c2N2CC[C@H](N)C2)c1 [Compound 2-8, 3-{4-[(3S)-3-aminopyrrolidin-1-yl]-5-(4-fluoro-1H-1,3-benzodiazol-2-yl)pyridin-3-yl}-5-fluorobenzonitrile]	> 1000			
CC(N)C1CN(c2c(-c3cc(F)cc(C#N)c3)cncc2-c2nc3c(F)cc(F)cc3[nH]2)C1 (centres unmarked) [Compound 1-64, 3-{4-[3-(1-aminoethyl)azetidin-1-yl]-5-(4,6-difluoro-1H-1,3-benzodiazol-2-yl)pyridin-3-yl}-5-fluorobenzonitrile]	> 1000			
Cc1cc(F)cc(-c2cncc(-c3nc4c(F)cccc4[nH]3)c2N2CC[C@H](N)C2)c1 [Compound 2-193, (3S)-1-[3-(4-fluoro-1H-1,3-benzodiazol-2-yl)-5-(3-fluoro-5-methylphenyl)pyridin-4-yl]pyrrolidin-3-amine]	100 to 1000			
Cc1cc(F)cc(-c2cncc(-c3nc4c(F)cc(F)cc4[nH]3)c2N2CC[C@H](N)C2)c1 (stereo in doubt) [Compound 2-194, 1-[3-(4,6-difluoro-1H-1,3-benzodiazol-2-yl)-5-(3-fluoro-5-methylphenyl)pyridin-4-yl]pyrrolidin-3-amine]	100 to 1000			
N#Cc1cc(-c2cncc(-c3nc4c(Cl)cccc4[nH]3)c2N2CC[C@H](N)C2)ccc1F [Compound 2-51, 5-{4-[(3S)-3-aminopyrrolidin-1-yl]-5-(4-chloro-1H-1,3-benzodiazol-2-yl)pyridin-3-yl}-2-fluorobenzonitrile]	100 to 1000			
Cc1cc(F)cc(-c2cncc(-c3nc4c(F)cccc4[nH]3)c2N2CC(CN)C2)c1 [Compound 1-2, 1-{1-[3-(4-fluoro-1H-1,3-benzodiazol-2-yl)-5-(3-fluoro-5-methylphenyl)pyridin-4-yl]azetidin-3-yl}methanamine]	> 1000			
